Experimental data taken from PubChem BioAssay (NCI).
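GI50 = concentration required for 50% inhibition of growth. TGI: total growth inhibition.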

Legend:
Experiment in all cases: inhibition of tumour cell growth, NCI panel, 384-well format
[1] = system: SK-MEL-2 melanoma
[2] = system: UACC-257 melanoma
[3] = system: MOLT-4 leukemia
[4] = system: COLO 205 colon
[5] = system: DU-145 prostate
[6] = system: K-562 leukemia
[7] = system: KM12 colon
[8] = system: HCT-15 colon
[9] = system: SK-MEL-28 melanoma
[10] = system: IGROV1 ovarian
[11] = system: M14 melanoma
[12] = system: HCT-116 colon
[13] = system: MALME-3M melanoma
[14] = system: SF-295 CNS
[15] = system: SN12C renal
[16] = system: HOP-92 NSCLC
[17] = system: TK-10 renal
[18] = system: NCI-H23 lung
[19] = system: UACC-62 melanoma
[20] = system: RXF 393 renal
[21] = system: OVCAR-8 ovarian
[22] = system: PC-3 prostate
[23] = system: EKVX NSCLC
[24] = system: BT-549 breast
[25] = system: 786-0 renal
[26] = system: NCI-H522 lung
[27] = system: SR leukemia
[28] = system: MCF7 breast
[29] = system: MDA-MB-231 breast
[30] = system: HS 578T breast
[31] = system: NCI-H226 lung
[32] = system: SF-268 CNS
[33] = system: HCC-2998 colon
[34] = system: SW-620 colon
[35] = system: ACHN renal
[36] = system: RPMI-8226 leukemia
[37] = system: SK-OV-3 ovarian
[38] = system: HT29 colon
[39] = system: HL-60(TB) leukemia
[40] = system: A498 renal
[41] = system: CAKI-1 renal
[42] = system: SNB-75 CNS
[43] = system: NCI/ADR-RES ovarian
[44] = system: OVCAR-4 ovarian
[45] = system: SK-MEL-5 melanoma
[46] = system: MDA-MB-435 melanoma
[47] = system: LOX IMVI melanoma

Cn1cc(-c2ccc3c(c2)CCN3C(=O)Cc2cccc(C(F)(F)F)c2)c2c(N)ncnc21
GI50 [1]: 2.71 µM | TGI [1]: 12.4 µM | GI50 [2]: 9.73 µM | TGI [2]: 31 µM | GI50 [3]: 2.15 µM | TGI [3]: 5.04 µM | GI50 [4]: 7.33 µM | TGI [4]: 21 µM | GI50 [5]: 4.16 µM | TGI [5]: 22.3 µM | GI50 [6]: 2.55 µM | TGI [6]: 11.4 µM | GI50 [7]: 0.547 µM | TGI [7]: 18.2 µM | GI50 [8]: 2.69 µM | TGI [8]: 17.6 µM | GI50 [9]: 12.5 µM | TGI [9]: 37.3 µM | GI50 [10]: 5.29 µM | TGI [10]: 49.9 µM | GI50 [11]: 5.69 µM | TGI [11]: 21.5 µM | GI50 [12]: 4.12 µM | TGI [12]: 17.1 µM | GI50 [13]: 2.99 µM | TGI [13]: 13.7 µM | GI50 [14]: 6.87 µM | TGI [14]: 20.5 µM | GI50 [15]: 1.36 µM | TGI [15]: 8.59 µM | GI50 [16]: 3.52 µM | TGI [16]: 13.3 µM | GI50 [17]: 7.63 µM | TGI [17]: 26.1 µM | GI50 [18]: 4.28 µM | TGI [18]: 15.9 µM | GI50 [19]: 5.44 µM | TGI [19]: 17.9 µM | GI50 [20]: 1.82 µM | TGI [20]: 8.86 µM | GI50 [21]: 5.73 µM | TGI [21]: 54.7 µM | GI50 [22]: 9.2 µM | TGI [22]: 22.6 µM | GI50 [23]: 3.03 µM | TGI [23]: 16.2 µM | GI50 [24]: 5 µM | TGI [24]: 17.6 µM | GI50 [25]: 3.99 µM | TGI [25]: 16.2 µM | GI50 [26]: 8.97 µM | TGI [26]: 21.5 µM | GI50 [27]: 1.47 µM | TGI [27]: 3.54 µM | GI50 [28]: 5.82 µM | TGI [28]: 20.3 µM | GI50 [29]: 4.91 µM | TGI [29]: 15.6 µM | GI50 [30]: 1.7 µM | TGI [30]: 7.47 µM | GI50 [31]: 3.82 µM | TGI [31]: 18.1 µM | GI50 [32]: 9.26 µM | TGI [32]: 23.8 µM | GI50 [33]: 15.5 µM | TGI [33]: 29.6 µM | GI50 [34]: 10.6 µM | TGI [34]: 22.9 µM | GI50 [35]: 2.25 µM | TGI [35]: 19.8 µM | GI50 [36]: 4.44 µM | TGI [36]: 16 µM | GI50 [37]: 1.63 µM | TGI [37]: 11.4 µM | GI50 [38]: 6.6 µM | TGI [38]: 19.6 µM | GI50 [39]: 2.21 µM | TGI [39]: 6.42 µM | GI50 [40]: 0.967 µM | TGI [40]: 17.7 µM | GI50 [41]: 2.14 µM | TGI [41]: 12.8 µM | GI50 [42]: 3.52 µM | TGI [42]: 14.2 µM | GI50 [43]: 5.14 µM | TGI [43]: 19.7 µM | GI50 [44]: 11.2 µM | TGI [44]: 25.1 µM | GI50 [45]: 3.86 µM | TGI [45]: 9.56 µM | GI50 [46]: 8.32 µM | TGI [46]: 29.8 µM | GI50 [47]: 5.67 µM | TGI [47]: 18.2 µM
